In one assay the target is PI3Kγ (p110γ) (Homo sapiens (Human), UniProt P48736). Briefly: PI3K-γ Scintillation Proximity Assay. Format: biochemical. Particulars: 20 μM PIP2, 2 μM ATP, 13 nM PI3Kγ, 120 min, room temperature. From the text:
Example B. PI3K-γ Scintillation Proximity Assay
[γ-^33P]ATP (10 mCi/mL) and Wheat Germ Agglutinin (WGA) YSi SPA Scintillation Beads was purchased from Perkin Elmer (Waltham, Mass.). Lipid kinase substrate, D-myo-Phosphatidylinositol 4,5-bisphosphate (PtdIns(4,5)P2)D (+)-sn-1,2-di-O-octanoylglyceryl, 3-O-phospho linked (PIP2), CAS 204858-53-7, was purchased from Echelon Biosciences (Salt Lake City, Utah). PI3Kγ (p110γ) Recombinant Human Protein was purchased from Life technology (Grand Island, N.Y.). ATP, MgCl2, DTT, EDTA, MOPS and CHAPS were purchased from Sigma Aldrich (St. Louis, Mo.).
(§1) The kinase reaction was conducted in polystyrene 384-well Greiner Bio-one white plate from Thermo Fisher Scientific in a final volume of 25 μL. Inhibitors were first diluted serially in DMSO and added to the plate wells before the addition of other reaction components. The final concentration of DMSO in the assay was 2%. The PI3Kγ assay was carried out at room temperature in 20 mM MOPS, pH 6.7, 10 mM MgCl2, 5 mM DTT and CHAPS 0.03%. Reactions were initiated by the addition of ATP, the final reaction mixture consisted of 20 μM PIP2, 2 μM ATP, 0.5 μCi [γ-^33P] ATP, 13 nM PI3Kγ. Reactions were incubated for 120 min and terminated by the addition of 40 μL SPA beads suspended in quench buffer: 163 mM potassium phosphate pH 7.8, 20% glycerol, 25 mM EDTA. The final concentration of SPA beads is 1.0 mg/mL. After the plate sealing, plates were shaken overnight at room temperature and centrifuged at 1500 rpm for 10 min, the radioactivity of the product was determined by scintillation counting on Topcount (Perkin-Elmer). IC50 determination was performed by fitting the curve of percent of the solvent control activity versus the log of the inhibitor concentration using the GraphPad Prism 6.0 software.
(In a scintillation proximity assay essentially only radioactivity close to the scintillant gives light.)

In another assay the target is PI3Kδ (p110δ/p85α) (Homo sapiens (Human), UniProt O00329). Briefly: PI3Kδ Scintillation Proximity Assay. It is filed as biochemical. Particulars: 20 μM PIP2, 2 μM ATP, 3.4 nM PI3Kδ, 120 min, room temperature.
Excerpt: Example C. PI3Kδ Scintillation Proximity Assay
Materials: [γ-^33P]ATP (10 mCi/mL) and Wheat Germ Agglutinin (WGA) YSi SPA Scintillation Beads was purchased from Perkin Elmer (Waltham, Mass.). Lipid kinase substrate, D-myo-Phosphatidylinositol 4,5-bisphosphate (PtdIns(4,5)P2)D (+)-sn-1,2-di-O-octanoylglyceryl, 3-O-phospho linked (PIP2), CAS 204858-53-7, was purchased from Echelon Biosciences (Salt Lake City, Utah). PI3Kδ (p110δ/p85α) Recombinant Human Protein was purchased from Eurofins (St Charles, Mo.). ATP, MgCl2, DTT, EDTA, MOPS and CHAPS were purchased from Sigma Aldrich (St. Louis, Mo.).
as §1, with “PI3K6” for “PI3Kγ”, “3.4” for “13”, “PI3K6.” for “PI3Kγ.”, “(PerkinElmer).” for “(Perkin-Elmer).”

In assay [1] the test system is Phosphorylated Ribosomal Protein S6 (RPS6) in THP-1 cells. The assay can be described thus: THP-1 RPS6 ELISA Assay. It is filed as cell-based. Particulars: Homo sapiens; serum starved THP-1 cells, 2 hours with compound, then 10 nM MCP-1 for 15 minutes; Phospho-RPS6 ELISA; read-out: PI3Kγ_THP1_RPS6_ELISA IC50. The procedure:
Example A. THP-1 RPS6 ELISA Assay
To measure the Phosphorylated Ribosomal Protein S6 (RPS6) in cell lysates, THP-1 cells (Human Acute Monocytic Leukemia) are purchased from ATCC (Manassas, Va.) and maintained in RPMI with 10% FBS (Gibco/Life Technologies, Carlsbad, Calif.). For the assay, THP-1 cells are serum starved overnight in RPMI, then plated in RPMI (2×10^5 cells/well in 90 μL) into 96-well flat-bottom tissue culture treated plates (Corning, Corning, N.Y.), in the presence or absence of a concentration range of test compounds. Covered plates are incubated for 2 hours at 37° C., 5% CO2 then treated with or without 10 nM MCP-1 (MYBioSource, San Diego, Calif.) for 15 minutes at 37° C., 5% CO2. Plates are centrifuged at 1600 RPM and supernatants are removed. Cells are lysed in Lysis Buffer (Cell Signaling, Danvers, Mass.) with Protease Inhibitor (Calbiochem/EMD, Germany), PMSF (Sigma, St Louis Mo.), HALTS (Thermo Fisher, Rockford, Ill.) for 30 min on wet ice. Cell lysates are frozen at −80 OC before testing. The lysates are tested in the Human/Mouse/Rat Phospho-RPS6 ELISA (R&D Systems, Inc. Minn, Minn.). The plate is measured using a microplate reader (SpectraMax M5—Molecular Devices, LLC Sunnyvale, Calif.) set to 450 nm with a wavelength correction of 540. IC50 determination is performed by fitting the curve of inhibitor percent inhibition versus the log of the inhibitor concentration using the GraphPad Prism 5.0 software.

Counter-ions that a name gives are not always drawn.

Chain of PI3Kγ (p110γ) (P48736 whole entry): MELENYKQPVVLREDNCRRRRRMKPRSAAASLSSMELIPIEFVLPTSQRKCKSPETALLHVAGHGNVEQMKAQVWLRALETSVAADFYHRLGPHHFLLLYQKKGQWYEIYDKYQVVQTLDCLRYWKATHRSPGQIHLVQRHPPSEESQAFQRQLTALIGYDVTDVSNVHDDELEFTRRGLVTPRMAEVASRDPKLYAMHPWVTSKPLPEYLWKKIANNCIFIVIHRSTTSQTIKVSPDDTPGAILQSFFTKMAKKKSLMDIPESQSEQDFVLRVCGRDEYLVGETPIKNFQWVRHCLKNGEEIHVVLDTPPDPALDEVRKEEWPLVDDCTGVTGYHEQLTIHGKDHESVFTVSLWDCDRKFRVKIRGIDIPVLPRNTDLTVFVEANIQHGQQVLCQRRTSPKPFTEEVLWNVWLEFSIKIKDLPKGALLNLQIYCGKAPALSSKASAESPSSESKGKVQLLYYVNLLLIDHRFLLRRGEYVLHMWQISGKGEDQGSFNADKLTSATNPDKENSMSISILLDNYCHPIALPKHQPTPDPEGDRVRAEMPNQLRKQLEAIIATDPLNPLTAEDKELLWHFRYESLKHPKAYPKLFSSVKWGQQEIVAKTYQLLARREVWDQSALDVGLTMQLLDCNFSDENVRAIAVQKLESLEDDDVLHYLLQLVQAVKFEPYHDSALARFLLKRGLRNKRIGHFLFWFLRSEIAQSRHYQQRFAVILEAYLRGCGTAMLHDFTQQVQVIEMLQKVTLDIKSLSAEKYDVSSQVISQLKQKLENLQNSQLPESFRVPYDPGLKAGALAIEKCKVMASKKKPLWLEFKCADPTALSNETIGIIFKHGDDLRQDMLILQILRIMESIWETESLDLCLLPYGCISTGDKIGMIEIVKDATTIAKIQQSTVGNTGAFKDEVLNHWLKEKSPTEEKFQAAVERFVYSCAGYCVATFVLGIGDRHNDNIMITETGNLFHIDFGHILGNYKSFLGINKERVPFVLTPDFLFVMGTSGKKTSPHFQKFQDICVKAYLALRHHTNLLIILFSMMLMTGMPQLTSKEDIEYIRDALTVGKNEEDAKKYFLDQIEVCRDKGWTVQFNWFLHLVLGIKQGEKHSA
Chain of PI3Kδ (p110δ/p85α) (O00329 whole entry): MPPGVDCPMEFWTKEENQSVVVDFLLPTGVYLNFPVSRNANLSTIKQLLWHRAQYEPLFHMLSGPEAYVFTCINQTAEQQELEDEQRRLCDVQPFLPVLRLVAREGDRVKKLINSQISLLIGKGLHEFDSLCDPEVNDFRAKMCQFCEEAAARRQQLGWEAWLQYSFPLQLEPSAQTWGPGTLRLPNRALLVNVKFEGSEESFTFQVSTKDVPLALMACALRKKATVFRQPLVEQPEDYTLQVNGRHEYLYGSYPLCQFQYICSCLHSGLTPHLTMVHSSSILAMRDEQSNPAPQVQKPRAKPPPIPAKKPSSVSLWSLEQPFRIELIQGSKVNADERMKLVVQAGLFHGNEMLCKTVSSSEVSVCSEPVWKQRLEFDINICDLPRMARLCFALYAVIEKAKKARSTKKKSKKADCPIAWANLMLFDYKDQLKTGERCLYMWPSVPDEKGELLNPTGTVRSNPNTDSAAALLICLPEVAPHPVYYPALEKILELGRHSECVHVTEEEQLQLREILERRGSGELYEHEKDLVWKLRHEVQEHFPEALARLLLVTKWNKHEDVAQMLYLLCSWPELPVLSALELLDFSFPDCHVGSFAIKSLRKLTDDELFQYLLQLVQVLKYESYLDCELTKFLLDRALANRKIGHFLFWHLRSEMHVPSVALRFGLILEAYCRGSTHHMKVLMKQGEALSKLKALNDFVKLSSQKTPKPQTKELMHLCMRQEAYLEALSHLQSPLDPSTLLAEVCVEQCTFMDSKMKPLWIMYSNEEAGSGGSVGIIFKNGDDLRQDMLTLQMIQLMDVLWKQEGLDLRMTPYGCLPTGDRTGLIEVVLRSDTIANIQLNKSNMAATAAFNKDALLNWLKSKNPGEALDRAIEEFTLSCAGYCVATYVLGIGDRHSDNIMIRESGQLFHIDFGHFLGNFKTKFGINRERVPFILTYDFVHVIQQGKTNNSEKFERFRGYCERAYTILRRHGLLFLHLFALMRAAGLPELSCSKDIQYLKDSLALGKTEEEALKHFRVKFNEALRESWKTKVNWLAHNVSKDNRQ
Chain of PI3Kδ (p110δ/p85α) (P27986 whole entry partner): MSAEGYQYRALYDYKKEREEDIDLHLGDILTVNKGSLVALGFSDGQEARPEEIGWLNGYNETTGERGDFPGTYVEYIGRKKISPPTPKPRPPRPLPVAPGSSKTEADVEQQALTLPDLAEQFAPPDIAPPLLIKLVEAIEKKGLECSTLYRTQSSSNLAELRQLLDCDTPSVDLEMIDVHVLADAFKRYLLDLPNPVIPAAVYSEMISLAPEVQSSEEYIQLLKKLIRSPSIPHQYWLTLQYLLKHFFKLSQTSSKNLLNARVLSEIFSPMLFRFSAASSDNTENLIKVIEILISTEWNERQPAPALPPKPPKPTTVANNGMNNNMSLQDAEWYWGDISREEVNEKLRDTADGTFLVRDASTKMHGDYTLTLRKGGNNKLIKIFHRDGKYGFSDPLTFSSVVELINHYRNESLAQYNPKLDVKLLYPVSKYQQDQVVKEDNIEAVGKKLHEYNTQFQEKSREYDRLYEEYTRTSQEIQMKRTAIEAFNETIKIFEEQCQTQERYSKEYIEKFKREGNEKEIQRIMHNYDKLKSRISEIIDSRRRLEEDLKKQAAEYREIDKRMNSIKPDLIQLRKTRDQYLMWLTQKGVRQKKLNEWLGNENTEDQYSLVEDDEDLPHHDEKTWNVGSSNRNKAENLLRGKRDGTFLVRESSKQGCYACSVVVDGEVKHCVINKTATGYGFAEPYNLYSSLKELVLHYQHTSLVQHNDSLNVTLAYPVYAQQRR

Take `C[C@@H](C1CC1)N1Cc2cc(-c3cnc(N)c(C(=O)NC4CCOCC4)n3)ccc2C1=O` [Example 1, (S)-3-Amino-6-(2-(1-cyclopropylethyl)-1-oxoisoindolin-5-yl)-N-(tetrahydro-2H-pyran-4-yl)pyrazine-2-carboxamide trifluoroacetate salt]: the IC50 at PI3Kγ (p110γ) is not above 100 nM; at PI3Kδ (p110δ/p85α), 500 to 2000 nM; in assay [1] it was not below 1000 nM.
As for `CC(C)NC(=O)c1nc(-c2ccc3c(c2)CN([C@@H](C)C2CC2)C3=O)cnc1N` [Example 2, (S)-3-Amino-6-(2-(1-cyclopropylethyl)-1-oxoisoindolin-5-yl)-N-isopropylpyrazine-2-carboxamide trifluoroacetate salt], the IC50 at PI3Kγ (p110γ) is not above 100 nM; against PI3Kδ (p110δ/p85α), 500 to 2000 nM; in assay [1], not below 1000 nM.
Regarding `C[C@@H](C1CC1)N1Cc2cc(-c3cnc(N)c(C(=O)NC4CCOCC4)n3)cc(S(C)(=O)=O)c2C1=O` [Example 3, (S)-3-Amino-6-(2-(1-cyclopropylethyl)-7-(methylsulfonyl)-1-oxoisoindolin-5-yl)-N-(tetrahydro-2H-pyran-4-yl)pyrazine-2-carboxamide trifluoroacetate salt], the IC50 is not above 100 nM at PI3Kγ (p110γ), 100 to 500 nM against PI3Kδ (p110δ/p85α) and 100 to 500 nM in assay [1].
With `CC(C)NC(=O)c1nc(-c2cc3c(c(S(C)(=O)=O)c2)C(=O)N([C@@H](C)C2CC2)C3)cnc1N` [Example 4, (S)-3-Amino-6-(2-(1-cyclopropylethyl)-7-(methylsulfonyl)-1-oxoisoindolin-5-yl)-N-isopropylpyrazine-2-carboxamide trifluoroacetate salt], the IC50 is not above 100 nM at PI3Kγ (p110γ), 500 to 2000 nM against PI3Kδ (p110δ/p85α) and not below 1000 nM in assay [1].
For `Cc1cc(-c2cnc(N)cn2)cc2cn(C(C)C3CC3)nc12` (centres unmarked) [Example 5, 5-(2-(1-Cyclopropylethyl)-7-methyl-2H-indazol-5-yl)pyrazin-2-amine, trifluoroacetate], the results for the IC50 on PI3Kγ (p110γ) and at PI3Kδ (p110δ/p85α) were 100 to 500 nM and not below 2000 nM, respectively.
`CC(C1CC1)n1nc2ccc(-c3cnc(N)cn3)cc2n1` (centres unmarked) [Example 6, 5-(2-(1-Cyclopropylethyl)-2H-benzo[d][1,2,3]triazol-5-yl)pyrazin-2-amine, trifluoroacetate]: the figures for the IC50 against PI3Kγ (p110γ) and against PI3Kδ (p110δ/p85α) were 500 to 2000 nM and not below 2000 nM, respectively.
Take `C[C@@H](C1CC1)N1Cc2cc(-c3cnc(N)c(-c4ccnn4C)n3)cc(S(C)(=O)=O)c2C1=O` [Example 7, (S)-5-(5-Amino-6-(1-methyl-1H-pyrazol-5-yl)pyrazin-2-yl)-2-(1-cyclopropylethyl)-7-(methylsulfonyl)isoindolin-1-one, trifluoroacetate salt]: the IC50 against PI3Kγ (p110γ) is not above 100 nM; at PI3Kδ (p110δ/p85α), 500 to 2000 nM; in assay [1], not below 1000 nM.
In the case of `C[C@@H](C1CC1)N1Cc2cc(-c3cnc(N)c(-c4cnn(C)c4)n3)cc(S(C)(=O)=O)c2C1=O` [Example 8, (S)-5-(5-Amino-6-(1-methyl-1H-pyrazol-4-yl)pyrazin-2-yl)-2-(1-cyclopropylethyl)-7-(methylsulfonyl)isoindolin-1-one, trifluoroacetate salt], the results for the IC50 (on PI3Kγ (p110γ); against PI3Kδ (p110δ/p85α); in assay [1]) were not above 100 nM, 500 to 2000 nM and 500 to 1000 nM, respectively.
For `Cc1ncc(-c2nc(-c3cc4c(c(S(C)(=O)=O)c3)C(=O)N([C@@H](C)C3CC3)C4)cnc2N)s1` [Example 9, (S)-5-(5-Amino-6-(2-methylthiazol-5-yl)pyrazin-2-yl)-2-(1-cyclopropylethyl)-7-(methylsulfonyl)isoindolin-1-one, trifluoroacetate salt], the IC50 against PI3Kγ (p110γ) was not above 100 nM; against PI3Kδ (p110δ/p85α), 100 to 500 nM; in assay [1] it was 500 to 1000 nM.
Turning to `Cc1n[nH]cc1-c1nc(-c2cc3c(c(S(C)(=O)=O)c2)C(=O)N([C@@H](C)C2CC2)C3)cnc1N` [Example 10, (S)-5-(5-Amino-6-(3-methyl-1H-pyrazol-4-yl)pyrazin-2-yl)-2-(1-cyclopropylethyl)-7-(methylsulfonyl)isoindolin-1-one, trifluoroacetate salt], the IC50 at PI3Kγ (p110γ) is not above 100 nM; against PI3Kδ (p110δ/p85α) it was 500 to 2000 nM; in assay [1] it was not below 1000 nM.
As for `C[C@@H](C1CC1)N1Cc2cc(-c3cnc(N)c(-c4cn[nH]c4)n3)cc(S(C)(=O)=O)c2C1=O` [Example 11, (S)-5-(5-Amino-6-(1H-pyrazol-4-yl)pyrazin-2-yl)-2-(1-cyclopropylethyl)-7-(methylsulfonyl)isoindolin-1-one, trifluoroacetate salt], the IC50 on PI3Kγ (p110γ) was not above 100 nM; against PI3Kδ (p110δ/p85α), 500 to 2000 nM.
`C[C@@H](C1CC1)N1Cc2cc(-c3cnc(N)c(-n4cncn4)n3)cc(S(C)(=O)=O)c2C1=O` [Example 12, (S)-5-(5-Amino-6-(1H-1,2,4-triazol-1-yl)pyrazin-2-yl)-2-(1-cyclopropylethyl)-7-(methylsulfonyl)isoindolin-1-one, trifluoroacetate salt]: the IC50 was not above 100 nM against PI3Kγ (p110γ), 500 to 2000 nM against PI3Kδ (p110δ/p85α) and not below 1000 nM in assay [1].
For `C[C@@H](C1CC1)N1Cc2cc(-c3cnc(N)c(C4CN(C(=O)C5(C(F)(F)F)CC5)C4)n3)ccc2C1=O` [Example 13, (S)-5-(5-Amino-6-(1-(1-(trifluoromethyl)cyclopropane-1-carbonyl)azetidin-3-yl)pyrazin-2-yl)-2-(1-cyclopropylethyl)isoindolin-1-one, 0.7× trifluoroacetate salt], the results for the IC50 on PI3Kγ (p110γ) and on PI3Kδ (p110δ/p85α) were not above 100 nM and not below 2000 nM, respectively.

Usually IC50 stands for the concentration needed to halve the response being measured.

(Values after US11161838B2, “Heterocyclic derivatives as PI3K inhibitors” (Incyte Corporation, priority 2018, dated 2021).)
